Assay results as given in PMC6360668, “Discovery and evaluation of ZT55, a novel highly-selective tyrosine kinase inhibitor of JAK2^V617F against myeloproliferative neoplasms” (Journal of Experimental & Clinical Cancer Research : CR, 2019).

Target: JAK2 (Homo sapiens, UniProt O60674)
Assay: HTRF KinEASE cell-free kinase assay with recombinant human JAK2
Assay type: biochemical

Chain of JAK2 (O60674 whole entry): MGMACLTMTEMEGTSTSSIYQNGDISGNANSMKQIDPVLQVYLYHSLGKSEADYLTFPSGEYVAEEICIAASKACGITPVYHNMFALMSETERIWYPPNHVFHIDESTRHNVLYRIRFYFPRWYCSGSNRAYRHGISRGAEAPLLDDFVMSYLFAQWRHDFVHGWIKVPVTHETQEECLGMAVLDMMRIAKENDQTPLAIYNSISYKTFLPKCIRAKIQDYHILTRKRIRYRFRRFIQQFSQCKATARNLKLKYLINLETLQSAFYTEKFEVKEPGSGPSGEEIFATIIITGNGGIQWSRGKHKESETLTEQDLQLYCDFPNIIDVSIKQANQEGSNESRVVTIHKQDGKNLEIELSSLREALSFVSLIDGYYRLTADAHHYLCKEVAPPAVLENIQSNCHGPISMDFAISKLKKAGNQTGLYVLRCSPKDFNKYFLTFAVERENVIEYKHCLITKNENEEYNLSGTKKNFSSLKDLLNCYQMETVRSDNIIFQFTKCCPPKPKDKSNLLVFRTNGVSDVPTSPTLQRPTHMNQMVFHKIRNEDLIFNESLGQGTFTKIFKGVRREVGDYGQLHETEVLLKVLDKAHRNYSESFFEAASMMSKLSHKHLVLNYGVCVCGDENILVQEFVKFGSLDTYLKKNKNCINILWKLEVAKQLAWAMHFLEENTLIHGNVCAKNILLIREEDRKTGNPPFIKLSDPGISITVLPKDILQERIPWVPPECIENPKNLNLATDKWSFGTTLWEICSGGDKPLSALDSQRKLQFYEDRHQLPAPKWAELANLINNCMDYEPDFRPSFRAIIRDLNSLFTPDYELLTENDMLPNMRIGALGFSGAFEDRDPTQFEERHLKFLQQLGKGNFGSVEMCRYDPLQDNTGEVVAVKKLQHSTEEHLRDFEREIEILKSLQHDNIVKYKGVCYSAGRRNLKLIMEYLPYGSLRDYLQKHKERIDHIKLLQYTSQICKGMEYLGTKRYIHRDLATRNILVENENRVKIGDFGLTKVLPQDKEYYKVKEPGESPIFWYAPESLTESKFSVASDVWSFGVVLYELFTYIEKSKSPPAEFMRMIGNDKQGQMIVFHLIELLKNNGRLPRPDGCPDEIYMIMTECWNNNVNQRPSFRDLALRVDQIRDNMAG

`COc1ccccc1NC(=O)Cc1cn(O)c2ccccc12` [ZT55] gave an IC50 of 31 nM.
